In one assay the target is Casein kinase II (Homo sapiens, UniProt P19784+P67870+P68400). Briefly: Inhibition of CK2 (unknown origin). It counts as protein-complex assay.
Assay [1] has as its target T1, Casein kinase II subunit alpha (Homo sapiens, UniProt P68400). Kind of assay: Inhibition of human wild type CK2alpha.
Assay [2] deals with T2, Adenosine kinase (Toxoplasma gondii) (UniProt Q9TVW2).
T2 sequence (whole entry): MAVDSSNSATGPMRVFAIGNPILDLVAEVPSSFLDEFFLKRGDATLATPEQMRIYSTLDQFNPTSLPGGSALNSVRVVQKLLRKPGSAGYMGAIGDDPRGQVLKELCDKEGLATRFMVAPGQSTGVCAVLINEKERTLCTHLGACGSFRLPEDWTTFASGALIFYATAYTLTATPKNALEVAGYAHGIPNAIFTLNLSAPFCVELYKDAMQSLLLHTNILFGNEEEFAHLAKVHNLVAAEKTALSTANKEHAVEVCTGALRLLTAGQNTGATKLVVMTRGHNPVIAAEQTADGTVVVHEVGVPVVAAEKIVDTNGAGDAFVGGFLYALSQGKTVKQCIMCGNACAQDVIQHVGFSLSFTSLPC
Kind of assay: Binding affinity to Toxoplasma gondii adenosine kinase assessed as formation of [14C]AMP from [14C]adenosine and ATP after 10 mins by liquid scintillation counting method relative to control.

Assay [3] has as its target Cellular tumor antigen p53 (Homo sapiens, UniProt P04637, Y220C). Briefly: Stabilization of human p53 Y220C mutant by differential scanning calorimetry.
Assay [4] addresses T1, Casein kinase II subunit alpha. Briefly: Competitive inhibition of human wild type CK2alpha by Dixon plot analysis.
Assay [5] concerns the target Human immunodeficiency virus type 1 reverse transcriptase (Human immunodeficiency virus 1) (UniProt Q72547). Kind of assay: Binding affinity to HIV1 reverse transcriptase relative to control.
Assay [6] addresses T1, Casein kinase II subunit alpha. Briefly: Inhibition of CK2alpha (unknown origin).

In general, Ki refers to the dissociation constant of the complex between target and ligand, obtained from inhibition or displacement. What is called Kd is the concentration at which binding is half-saturated. The low end stands for a tighter complex, the high end for a looser complex.

T1 sequence (P68400 whole entry): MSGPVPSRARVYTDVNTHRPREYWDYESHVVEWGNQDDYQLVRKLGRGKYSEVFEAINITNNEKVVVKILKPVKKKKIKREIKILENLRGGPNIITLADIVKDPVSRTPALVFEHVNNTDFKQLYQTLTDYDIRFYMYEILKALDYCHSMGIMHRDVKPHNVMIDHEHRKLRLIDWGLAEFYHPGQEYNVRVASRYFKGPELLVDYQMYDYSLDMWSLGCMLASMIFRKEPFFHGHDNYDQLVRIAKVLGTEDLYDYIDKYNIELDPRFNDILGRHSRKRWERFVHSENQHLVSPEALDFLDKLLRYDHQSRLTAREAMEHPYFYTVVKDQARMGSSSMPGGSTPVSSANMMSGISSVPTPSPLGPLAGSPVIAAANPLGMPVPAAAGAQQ
Sequence of Casein kinase II (P67870 whole entry): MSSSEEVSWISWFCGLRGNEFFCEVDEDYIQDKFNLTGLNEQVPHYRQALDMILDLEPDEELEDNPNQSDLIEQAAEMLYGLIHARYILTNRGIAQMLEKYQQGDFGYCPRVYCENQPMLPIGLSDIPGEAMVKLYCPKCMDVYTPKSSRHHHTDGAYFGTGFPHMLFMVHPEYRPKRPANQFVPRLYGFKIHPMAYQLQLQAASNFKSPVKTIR
Sequence of Casein kinase II (P68400 whole entry): as the sequence (P68400 whole entry) above
Sequence of Casein kinase II (P19784 whole entry): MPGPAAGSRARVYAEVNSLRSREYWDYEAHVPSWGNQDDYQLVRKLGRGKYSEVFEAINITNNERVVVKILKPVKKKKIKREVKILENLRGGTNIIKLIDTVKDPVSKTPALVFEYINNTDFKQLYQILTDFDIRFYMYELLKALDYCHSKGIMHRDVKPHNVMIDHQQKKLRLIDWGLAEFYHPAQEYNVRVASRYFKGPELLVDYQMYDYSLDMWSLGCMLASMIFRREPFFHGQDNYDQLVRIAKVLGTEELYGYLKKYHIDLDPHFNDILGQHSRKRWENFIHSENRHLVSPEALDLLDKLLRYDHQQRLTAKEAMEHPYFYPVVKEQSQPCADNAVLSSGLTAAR

The compound `FC(F)(F)c1nc2c(I)c(I)c(I)c(I)c2[nH]1` yielded a Ki on Casein kinase II of 370 nM.

`S=c1[nH]c2c(Br)c(Br)c(Br)c(Br)c2[nH]1` returned a Ki in assay [1] of 70 nM.

As for `S=C1NC2C(I)=C(I)C(I)=C(I)C2N1` (stereo not given), the Ki at Casein kinase II was 200 nM.

As to `Nc1ncnc2c1c(I)cn2[C@@H]1O[C@H](CO)[C@@H](O)[C@H]1O`, the fold change (FC) in assay [2] was 200.

For `CCn1c2ccccc2c2cc(CNC)ccc21`, binding in assay [3] was put at a Kd of 150000 nM.

Regarding `CS(=O)(=O)c1nc2c(Br)c(Br)c(Br)c(Br)c2[nH]1`, the inhibition constant Ki in assay [4] was 150 nM.

`O=c1[nH]ccc(Oc2ccccc2)c1I` had a fold change (FC) in assay [5] of 300.

`FC(F)(F)c1nc2c(Br)c(Br)c(Br)c(Br)c2[nH]1` came in with a Ki in assay [6] of 400 nM.

Consider `Cc1nc2c(I)c(Cl)c(Cl)c(I)c2[nH]1`, for which the Ki in assay [4] came out at 200 nM. In other words, the sub-micromolar range.

On to `Clc1c(Cl)c(I)c2[nH]cnc2c1I`, for which, in assay [4], the Ki was found to be 300 nM. This Ki lies about 1.5-fold higher than the previous one.

(Values after ChEMBL document CHEMBL3792305, “Computational Tools To Model Halogen Bonds in Medicinal Chemistry” (J Med Chem, 2016).)
